According to ChEMBL document CHEMBL5365410, “SAR of L-ABBA analogs for GGT1 inhibitory activity and L-ABBA's effect on plasma cysteine and GSH species” (Bioorg Med Chem Lett, 2023):
The source made the active and inactive calls. No cut-off for these calls is given here.

Legend:
[1] = Inhibition of bovine GGT1 transpeptidation assessed as inhibition constant; design: species or system Bos taurus
[2] = Inhibition of bovine GGT1 assessed as GSH hydrolysis by measuring inhibition constant; design: species or system Bos taurus
[3] = molecular target: T1, Glutathione hydrolase 1 proenzyme (Homo sapiens, UniProt P19440); assay: Inhibition of GGT1 (unknown origin) assessed as GSH hydrolysis by measuring inhibition constant
T1 sequence (P19440 1-380 limits assumed): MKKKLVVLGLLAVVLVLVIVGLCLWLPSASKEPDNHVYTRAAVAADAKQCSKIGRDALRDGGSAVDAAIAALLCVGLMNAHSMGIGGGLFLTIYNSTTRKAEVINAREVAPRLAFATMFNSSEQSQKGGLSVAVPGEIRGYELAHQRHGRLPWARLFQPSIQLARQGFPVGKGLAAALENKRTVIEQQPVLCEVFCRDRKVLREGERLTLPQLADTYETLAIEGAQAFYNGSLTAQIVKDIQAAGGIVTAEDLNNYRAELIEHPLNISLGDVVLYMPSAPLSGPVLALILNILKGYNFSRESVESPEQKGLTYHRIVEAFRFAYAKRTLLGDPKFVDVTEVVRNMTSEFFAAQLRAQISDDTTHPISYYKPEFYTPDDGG
T1 sequence (P19440 381-569 limits assumed): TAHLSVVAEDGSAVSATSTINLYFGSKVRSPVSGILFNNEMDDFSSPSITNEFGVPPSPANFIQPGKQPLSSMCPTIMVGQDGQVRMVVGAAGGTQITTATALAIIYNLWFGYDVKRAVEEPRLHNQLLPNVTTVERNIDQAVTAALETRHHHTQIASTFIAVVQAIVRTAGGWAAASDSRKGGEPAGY

[4] = molecular target: T1, Glutathione hydrolase 1 proenzyme; assay: Inhibition of GGT1 (unknown origin) transpeptidation assessed as inhibition constant using L-GpNA as substrate in presence of Gly-Gly
[5] = In-vivo inhibition of GGT1 in mouse assessed as increase in cystine level in plasma measured after 1 hrs; format: functional
[6] = Cmax in C57BL/6 mouse at 0.3 mg/kg, ip; format: ADME, organism-based; design: dose 0.3 mg/kg, route ip; settings: in vivo
[7] = MRT in C57BL/6 mouse at 0.3 mg/kg, ip; format: ADME, organism-based; settings: in vivo
[8] = Half life in C57BL/6 mouse at 0.3 mg/kg, ip; format: ADME, organism-based; settings: in vivo
[9] = Clearance in C57BL/6 mouse at 0.3 mg/kg, ip; format: ADME, organism-based; settings: in vivo
[10] = Volume of distribution at steady in C57BL/6 mouse at 0.3 mg/kg, ip; format: ADME, organism-based; settings: in vivo
Mus musculus [11] = assay: In-vivo inhibition of GGT1 in mouse assessed as effect on cysteine level in plasma measured at 0.5 to 48 hrs; format: functional; settings: dose 0.2-1 mg, time 0.5-48 hrs
Mus musculus [12] = assay: In-vivo inhibition of GGT1 in mouse assessed as effect on GSSG level in plasma measured at 0.5 to 48 hrs; format: functional; settings: dose 0.2-1 mg, time 0.5-48 hrs
Mus musculus [13] = assay: In-vivo inhibition of GGT1 in mouse assessed as effect on GSH level in plasma measured at 0.5 to 48 hrs; format: functional; settings: dose 0.2-1 mg, time 0.5-48 hrs
Mus musculus [14] = assay: In-vivo inhibition of GGT1 in mouse assessed as effect on cysteine level in plasma at 0.2 to 1 mg; format: functional; settings: dose 0.2-1 mg, time 0.5-48 hrs, TDE = time-dependent effect
Mus musculus [15] = assay: In-vivo inhibition of GGT1 in mouse assessed as effect on GSSG level in plasma at 0.2 to 1 mg; format: functional; settings: dose 0.2-1 mg, time 0.5-48 hrs, TDE = time-dependent effect
Mus musculus [16] = assay: In-vivo inhibition of GGT1 in mouse assessed as effect on GSH level in plasma at 0.2 to 1 mg; format: functional; settings: dose 0.2-1 mg, time 0.5-48 hrs, TDE = time-dependent effect
[17] = In-vivo inhibition of GGT1 in mouse assessed as decrease in cysteine level in plasma at 0.03 mg measured after 1 hrs; format: functional
[18] = In-vivo inhibition of GGT1 in mouse assessed as decrease in cystine level in plasma at 0.03 mg measured after 1 hrs; format: functional
[19] = In-vivo inhibition of GGT1 in mouse assessed as decrease in total cysteine level in plasma at 0.03 mg measured after 1 hrs; format: functional
[20] = In-vivo inhibition of GGT1 in mouse assessed as increase in GSSG level in plasma at 0.03 mg measured after 1 hrs; format: functional; settings: values are per cent of control
[21] = In-vivo inhibition of GGT1 in mouse assessed as increase in GSH level in plasma at 0.03 to 1 mg measured after 1 hrs; format: functional; settings: dose 0.03-1 mg, values are per cent of control
Mus musculus [22] = assay: In-vivo inhibition of GGT1 in mouse assessed as decrease in total cysteine level in plasma at 0.03 mg measured after 48 hrs; format: functional
Mus musculus [23] = assay: In-vivo inhibition of GGT1 in mouse assessed as increase in GSH level in plasma at 0.03 mg measured after 48 hrs; format: functional
[24] = In-vivo inhibition of GGT1 in mouse assessed as decrease in GSH level in plasma at 0.03 mg measured after 1 hr; format: functional
[25] = In-vivo inhibition of GGT1 in mouse assessed as decrease in GSH level in plasma at 0.03 mg measured at 24 to 48 hrs; format: functional; settings: time 24-48 hrs
[26] = In-vivo inhibition of GGT1 in mouse assessed as decrease in GSH level in plasma at 0.03 mg measured at 24 hrs; format: functional
[27] = In-vivo inhibition of GGT1 in mouse assessed as decrease in GSH level in plasma at 0.03 mg measured at 48 hrs; format: functional
[28] = In-vivo inhibition of GGT1 in mouse assessed as increase in GSH-NEM level in plasma at 0.03 mg measured after 6 hrs; format: functional; settings: values are per cent of control
[29] = In-vivo inhibition of GGT1 in mouse assessed as increase in GSSG level in plasma at 0.03 mg measured after 6 hrs; format: functional; settings: values are per cent of control
[30] = In-vivo inhibition of GGT1 in mouse assessed as increase in total GSH level in plasma at 0.03 mg measured after 6 hrs; format: functional; settings: values are per cent of control
[31] = In-vivo inhibition of GGT1 in mouse assessed as increase in cystine-NEM level in plasma measured after 1 hrs; format: functional
[32] = molecular target: T1, Glutathione hydrolase 1 proenzyme; assay: Inhibition of GGT1 (unknown origin) transpeptidation at 9100 uM using L-GpNA as substrate in presence of Gly-Gly relative to control
[33] = molecular target: T1, Glutathione hydrolase 1 proenzyme; assay: Inhibition of GGT1 (unknown origin) assessed as GSH hydrolysis at […] relative to control
[34] = molecular target: T1, Glutathione hydrolase 1 proenzyme; assay: Inhibition of GGT1 (unknown origin) transpeptidation at 37500 uM using L-GpNA as substrate in presence of Gly-Gly relative to control

In the case of `N[C@H](CCB(O)O)C(=O)O`, the Ki [1] is reported as 45 nM and the Ki [2] is reported as 77 nM.

Compound `CC(N)(CCB(O)O)C(=O)O` (racemic) has a Ki [3] of 2.8 µM and a Ki [4] of 0.92 µM.

`CCCC(N)(CCB(O)O)C(=O)O` (racemic) gave a Ki [3] of 703 µM and a Ki [4] of 198 µM.

Work on `N[C@@H](CCCB(O)O)C(=O)O` yielded a Ki [3] greater than 4000 µM and a Ki [4] of 3820 µM.

Work on `CCC(N)(CCB(O)O)C(=O)O` (racemic) yielded a Ki [3] of 874 µM and a Ki [4] of 444 µM.

With `N[C@@H](CCB(O)O)C(=O)O` the ID50 [5] was 0.002 mg, the Ki [1] was 5 nM and the Ki [4] was 0.005 µM. For the same compound, the Ki [2] was 25 nM, the Cmax [6] was 15300 ng/mL and the MRT [7] was 5.42 h. The half-life [8] was 235 min, the CL/F [9] was 0.0612 mL/min and the Vdss [10] was 20.76 mL. The inhibition (Mus musculus [11]) was “Dose-Dependent Effect”, the inhibition (Mus musculus [12]) was “Dose-Dependent Effect” and the inhibition (Mus musculus [13]) was “Dose-Dependent Effect”. The inhibition (Mus musculus [14]) was “Tde”, the inhibition (Mus musculus [15]) was “Tde” and the inhibition (Mus musculus [16]) was “Tde”. For the same compound, the “inhibition (INH)” value [17] was 25%, the “inhibition (INH)” value [18] was 75% and the “inhibition (INH)” value [19] was 35%. For the same compound, the “response, % of control” value [20] was 1000%, the “response, % of control” value [21] was 250% and the inhibition (Mus musculus [22]) was “Active”. For the same compound, the inhibition (Mus musculus [23]) was “Active”, the “inhibition (INH)” value [24] was 85% and the “inhibition (INH)” value [25] was 33%. The “inhibition (INH)” value [26] was less than 50%, the “inhibition (INH)” value [27] was 89% and the “response, % of control” value [28] was 500%. The “response, % of control” value [29] was 1500%, the “response, % of control” value [30] was 1000% and the ID50 [31] was 0.22 mg.

For `NCCCB(O)O`, the Ki [3] was greater than 5000 µM and the inhibition [32] was “inactive”.

For `O=C(O)CCCB(O)O`, the inhibition [33] was 50% and the inhibition [34] was 50%.

`COc1ccc(Cc2nnc(NS(=O)(=O)c3ccccc3)s2)cc1` gave a Ki [4] of 68 µM.
